Assay results as given in patent publication US10039747B2, “Tetrahydrocyclopentapyrrole derivatives and a method for preparing the same” (Daewoong Pharmaceutical Co., Ltd., priority 2013, dated 2018).

Target: T1, H+/K+-ATPase (Sus scrofa, UniProt P19156)
T1 construct: reaction buffer solution (60 mmol/l Tris-HCl buffer solution, pH 7.4) containing hog gastric vesicle; from tissue; host or cells: hog stomach (gastric vesicles, by centrifugation after Rabon et al. 1988)
Experiment: Inhibition of proton pump (H+/K+-ATPase) activity in hog gastric vesicles
Format: biochemical
Conditions: K+ specific H+/K+-ATPase activity, pH 7.4, 37° C. for 40 minutes, malachite green
Experimental: 1) Preparation of Gastric Vesicles
Gastric vesicles were prepared from hog stomach by centrifugation (Edd C. Rabon et al., Preparation of Gastric H^+,K^+-ATPase, Methods in enzymology, vol. 157 Academic Press Inc., (1988), pp. 649-654). The protein contents of the prepared gastric vesicles were quantified with a Bicinchoninic Acid (BCA) kit.
2) Measurement of Effect of Inhibiting Proton Pump (H^+/K^+-ATPase) Activity
The effect of inhibiting proton pump activity by the compound of the present invention was measured in a 96-well plate. In this experiment, K^+ specific H^+/K^+-ATPase activity was calculated based on the difference between H^+/K^+-ATPase activity in the presence of K^+ ions and H^+/K^+-ATPase activity in the absence of K^+ ions. In the 96-well plate, to negative and positive control groups, 0.5% dimethylsulfoxide (DMSO) in buffer was added, and to the test groups, the compound of the present invention was added. All the analyses were conducted at room temperature with the reaction volume of 100 μl. To a reaction buffer solution (60 mmol/l Tris-HCl buffer solution, pH 7.4) containing hog gastric vesicle, DMSO and each concentration of compound were added, and then, 10 μl of a 10 mmol/l adenosine triphosphate tris buffer solution (60 mmol/l Tris-HCl buffer solution, pH 7.4) was added to initiate an enzyme reaction. The enzyme reaction was conducted at 37° C. for 40 minutes, 50 μl of a malachite green solution (0.12% malachite green solution, 5.8% ammonium molybdate and 11% tween 20 were mixed at a ratio of 100:67:2 in 6.2 N sulfuric acid) was added to stop the reaction, and 50 μl of 15.1% sodium citrate was added. During the reaction, the amount of monophosphate (Pi) was measured at 570 nm using micro plate reader (FLUOstar Omega, BMG Company). Inhibition rate (%) was measured from the activity values of the control groups and the activity values of various concentrations of the test compound, and IC50 of the test compound was calculated from each % inhibition value of the compound using Logistic 4-parameter function of Sigmaplot 8.0 program.

T1 sequence (P19156 2-1034 limits assumed): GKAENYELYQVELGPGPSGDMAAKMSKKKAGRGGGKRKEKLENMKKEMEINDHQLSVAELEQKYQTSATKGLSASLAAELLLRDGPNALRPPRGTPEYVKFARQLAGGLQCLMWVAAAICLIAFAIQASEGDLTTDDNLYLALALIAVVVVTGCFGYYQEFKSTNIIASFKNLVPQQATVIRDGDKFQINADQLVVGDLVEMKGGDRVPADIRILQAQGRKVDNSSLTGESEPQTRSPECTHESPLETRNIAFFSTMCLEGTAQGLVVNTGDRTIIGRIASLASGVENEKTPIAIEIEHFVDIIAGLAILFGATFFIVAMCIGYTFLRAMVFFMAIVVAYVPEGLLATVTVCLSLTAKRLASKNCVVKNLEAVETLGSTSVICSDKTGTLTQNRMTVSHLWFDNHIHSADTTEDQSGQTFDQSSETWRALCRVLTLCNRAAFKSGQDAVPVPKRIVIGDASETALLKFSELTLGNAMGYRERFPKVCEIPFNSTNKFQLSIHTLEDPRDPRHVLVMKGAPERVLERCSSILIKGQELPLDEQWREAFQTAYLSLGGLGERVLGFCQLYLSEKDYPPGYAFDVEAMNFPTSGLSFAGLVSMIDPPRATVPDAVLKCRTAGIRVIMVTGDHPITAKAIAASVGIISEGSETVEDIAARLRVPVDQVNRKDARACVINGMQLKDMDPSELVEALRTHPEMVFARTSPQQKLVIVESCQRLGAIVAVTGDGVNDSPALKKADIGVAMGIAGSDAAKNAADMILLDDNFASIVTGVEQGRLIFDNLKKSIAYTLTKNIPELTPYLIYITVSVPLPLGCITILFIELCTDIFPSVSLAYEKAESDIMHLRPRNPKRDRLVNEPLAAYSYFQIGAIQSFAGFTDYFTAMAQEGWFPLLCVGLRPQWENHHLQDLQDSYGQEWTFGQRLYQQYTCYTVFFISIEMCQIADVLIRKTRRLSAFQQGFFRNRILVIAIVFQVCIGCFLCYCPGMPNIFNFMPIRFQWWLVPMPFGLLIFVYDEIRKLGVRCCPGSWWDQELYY
T1 sequence (P18434 whole entry partner): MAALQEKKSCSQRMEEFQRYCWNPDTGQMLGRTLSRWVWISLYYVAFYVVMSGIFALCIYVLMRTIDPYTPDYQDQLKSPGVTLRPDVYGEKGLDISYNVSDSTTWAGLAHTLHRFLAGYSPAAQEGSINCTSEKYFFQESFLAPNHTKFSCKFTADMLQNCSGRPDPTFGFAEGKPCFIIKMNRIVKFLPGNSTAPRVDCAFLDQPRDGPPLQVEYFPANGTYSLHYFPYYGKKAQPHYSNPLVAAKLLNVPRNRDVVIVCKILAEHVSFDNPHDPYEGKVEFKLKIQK

SMILES	IC50 [nM]
CNC1CCc2c1cn(S(=O)(=O)c1cccc(Cl)c1)c2-c1cccc(Cl)n1 (centres unmarked) [Example 36, 2-((3-chlorophenyl)sulfonyl)-1-(6-chloropyridin-2-yl)-N-methyl-2,4,5,6-tetrahydrocyclopenta[c]pyrrol-4-amine]	2540
CNC1CCc2c1cn(C(=O)c1cccc(Cl)c1)c2-c1ccc(F)cc1F (centres unmarked) [Example 114, (3-chlorophenyl)(1-(2,4-difluorophenyl)-4-(methylamino)-5,6-dihydrocyclopenta[c]pyrrol-2(4H)-yl)methanone]	30100
CNC1CCCc2c1cn(S(=O)(=O)c1cccc(Cl)c1)c2-c1ccc(-c2ccccc2)cc1 (centres unmarked) [Example 127, 1-([1,1′-biphenyl]-4-yl)-2-((3-chlorophenyl)sulfonyl)-N-methyl-4,5,6,7-tetrahydro-2H-isoindole-4-amine]	4530
CNC1CCc2c1cn(S(=O)(=O)c1cccc(Cl)c1)c2-c1ccsc1 (centres unmarked) [Example 33, 2-((3-chlorophenyl)sulfonyl)-N-methyl-1-(thiophen-3-yl)-2,4,5,6-tetrahydrocyclopenta[c]pyrrol-4-amine]	320
CNC1CCc2c1cn(S(=O)(=O)c1cccc(Cl)c1)c2-c1cccc(C)c1 (centres unmarked) [Example 8, 2-((3-chlorophenyl)sulfonyl)-N-methyl-1-(m-tolyl)-2,4,5,6-tetrahydrocyclopenta[c]pyrrol-4-amine]	750
CNC1CCCc2c1cn(S(=O)(=O)c1cccc(Cl)c1)c2-c1ccncc1 (centres unmarked) [Example 128, 2-((3-chlorophenyl)sulfonyl)-N-methyl-1-(pyridin-4-yl)-4,5,6,7-tetrahydro-2H-isoindole-4-amine]	50000
CNC1CCc2c1cn(S(=O)(=O)c1cccc(Cl)c1)c2-c1ccc(OC(F)(F)F)cc1 (centres unmarked) [Example 17, 2-((3-chlorophenyl)sulfonyl)-N-methyl-1-(4-(trifluoromethoxy)phenyl)-2,4,5,6-tetrahydrocyclopenta[c]pyrrol-4-amine]	1390
Cc1oc(=O)oc1COC(=O)N(C)C1CCc2c1cn(S(=O)(=O)c1cccc(Cl)c1)c2-c1ccccc1F (centres unmarked) [Example 118, (5-methyl-2-oxo-1,3-dioxol-4-yl)methyl (2-((3-chlorophenyl)sulfonyl)-1-(2-fluorophenyl)-2,4,5,6-tetrahydrocyclopenta[c]pyrrol-4-yl)(methyl)carbamate]	40000

The next lines start with the values.

IC50 [nM]	SMILES
800	CNC1CCc2c1cn(S(=O)(=O)c1ccc(Oc3ccccc3)nc1)c2-c1ccccc1F (centres unmarked) [Example 96, 1-(2-fluorophenyl)-N-methyl-2-((6-phenoxypyridin-3-yl)sulfonyl)-2,4,5,6-tetrahydrocyclopenta[c]pyrrol-4-amine]
620	CNC1CCc2c1cn(S(=O)(=O)c1ccc(Cl)c(Cl)c1Cl)c2-c1ccccc1F (centres unmarked) [Example 80, 1-(2-fluorophenyl)-N-methyl-2-((2,3,4-trichlorophenyl)sulfonyl)-2,4,5,6-tetrahydrocyclopenta[c]pyrrol-4-amine]
480	CNC1CCc2c1cn(S(=O)(=O)c1cccc(Cl)c1)c2-c1ccc(F)c(F)c1 (centres unmarked) [Example 24, 2-((3-chlorophenyl)sulfonyl)-1-(3,4-difluorophenyl)-N-methyl-2,4,5,6-tetrahydrocyclopenta[c]pyrrol-4-amine]
420	CNC1CCc2c1cn(S(=O)(=O)c1cccc(OC(F)F)c1)c2-c1ccccc1F (centres unmarked) [Example 57, 2-((3-(difluoromethoxy)phenyl)sulfonyl)-1-(2-fluorophenyl)-N-methyl-2,4,5,6-tetrahydrocyclopenta[c]pyrrol-4-amine]
520	CNC1CCc2c1cn(S(=O)(=O)c1cc(C(F)(F)F)ccc1Cl)c2-c1ccccc1F (centres unmarked) [Example 74, 2-((2-chloro-5-(trifluoromethyl)phenyl)sulfonyl)-1-(2-fluorophenyl)-N-methyl-2,4,5,6-tetrahydrocyclopenta[c]pyrrol-4-amine]
480	CNC1CCc2c1cn(S(=O)(=O)c1cc(Cl)ccc1Cl)c2-c1ccc(C)cc1F (centres unmarked) [Example 72, 2-((2,5-dichlorophenyl)sulfonyl)-1-(2-fluoro-4-methylphenyl)-N-methyl-2,4,5,6-tetrahydrocyclopenta[c]pyrrol-4-amine]
